The values that follow come from patent US7517517B2 (Janssen Pharmaceutica N.V., priority 2002, dated 2009).

Structures are written as SMILES. Marks after values point to notes of the source that are not given here.

The target in experiment [1] is T1, mGlu1 receptor (Rattus norvegicus, UniProt P23385). Briefly: [3H]Compound A binding and autoradiography on rat brain sections. The method, then: Tissue preparation. Male Wistar rats (200 g) were sacrificed by decapitation. Brains were immediately removed from the skull and were rapidly frozen in dry-ice-cooled 2-methylbutane (−40° C.). Brains were then stored at −70° C. until sectioning. Twenty-micrometer-thick sagittal sections were cut using a Leica C3050 cryostat microtome (Leica Microsystems, Wetzlar, Germany) and thaw-mounted on SuperFrost Plus microscope slides (Menzle-glaser, Germany). The sections were then kept at −70° C. until use.
Receptor autoradiography. Sections were thawed and dried under a stream of cold air, preincubated (3×5 min) in 50 mM Tris-HCl, 1.2 mM MgCl2, 2 mM CaCl2, 0.1% BSA pH 7.4 at room temperature. […] After the incubation, the excess of radioligand was washed off (3×5 min) in ice-cold buffer containing 50 mM Tris-HCl, 1.2 mM MgCl2 and 2 mM CaCl2, followed by a rapid dip in cold distilled water. The sections were dried under a stream of cold air and then exposed to [^3H]Hyperfilm (Amersham, UK) for 6 weeks at room temperature. The films were developed manually in Kodak D19 and fixed with Kodak Readymatic. Some sections were exposed to a Fuji Imaging Plate for 2 days at room temperature and scanned using a Fujix Bass 2000 phosphoimager.

Another experiment addresses T2, rat mGlu5 receptor (Rattus norvegicus, UniProt P31424).
T2 construct: host or cells: CHO-dhfr- cells
Kind of experiment: [3H]Compound A binding to membranes from CHO-dhfr− cells expressing the rat mGlu5 receptor. As to conditions: 20 nM [3H]Compound A, 40 μg membranes; Compound 135 as blanc. The procedure:
(§1) Confluent cells were washed in ice-cold phosphate-buffered saline and stored at −20° C. until membrane preparation. After thawing, cells were suspended in 50 mM Tris-HCl, pH 7.4 and collected through centrifugation for 10 min at 23,500 g at 4° C. The cells were lysed in 10 mM hypotonic Tris-HCl, pH 7.4. After recentrifugation for 20 min at 30,000 g at 4° C., the pellet was homogenized with an Ultra Turrax homogenizer in 50 mM Tris-HCl, pH 7.4. Protein concentrations were measured by the Bio-Rad protein assay using bovine serum albumin as standard.
(§2) After thawing, the membranes were homogenized using an Ultra Turrax homogenizer and suspended in ice-cold binding buffer containing 50 mM Tris-HCl (pH 7.4), 1.2 mM MgCl2, 2 mM CaCl2. For [^3H]Compound A binding, 20 to 160 μg membrane protein and a final concentration of 20 nM [^3H]Compound A was used. As indicated in the results section, different blancs were used to define non-specific binding. Incubation time and temperature as well as filtration were as described for rat mGlu1a receptor CHO-dhfr^− membranes. Expression of rat mGlu2, -3, -5 and mGlu6 receptors was confirmed by specific binding of [^3H]LY341495 (mGlu2, -3 and -6) or [^3H]MPEP (mGlu5). For [^3H]LY341495 binding, 1 nM (mGlu2 and mGlu3) or 10 nM (mGlu6) [^3H]LY341495 was used. […] Assay mixtures were incubated for 30 min (mGlu2 and mGlu3) or 60 min (mGlu6) at 4° C. […]

Experiment [2] concerns the target T1, mGlu1 receptor. Kind of experiment: [3H]Compound A binding to rat brain membranes (cortex, hippocampus, striatum, cerebellum). The procedure:
Tissue preparation. Male Wistar rats (˜200 g) were sacrificed by decapitation. The brains were rapidly removed and cortex, hippocampus, striatum and cerebellum were immediately dissected. The fresh tissue was homogenized with an Ultra Turrax in 20 volumes of 50 mM Tris-HCl, pH 7.4 and tissue was centrifuged at 23,500 g for 10 min. After homogenisation using a DUAL homogeniser, membranes were washed twice by centrifugation at 23,500 g for 10 min. The final pellet was suspended in 10 volumes of 50 mM Tris-HCl, pH 7.4 and frozen at −80° C.
In vitro binding assay. After thawing, membranes from rat cortex, cerebellum, striatum and hippocampus were rehomogenized using a DUAL and suspended in ice-cold binding buffer containing 50 mM Tris-HCl, 1.2 mM MgCl2, 2 mM CaCl2, pH 7.4. The binding assay was carried out in a total volume of 0.5 ml containing 2.5 nM [^3H]Compound A and a membrane aliquot corresponding to 40 μg for cerebellar membranes, 60 μg for hippocampal membranes, 80 μg for striatal membranes or 150 μg for cortical membranes. […] After incubation for 30 min at 4° C., the labelled membranes were washed and harvested by rapid vacuum filtration over Whatman GF/C glass-fibre filters using a 40-well filtration manifold and radioactivity collected on the filters was counted as above.
Data analysis was performed using the GraphPad Prism program (GraphPad Prism Software, Inc., San Diego, Calif.). Saturation binding experiments were analysed using a non-linear regression analysis. Inhibition curves were fitted using non-linear regression analysis fitting the one-site competition equation: Y=Bottom+((Top−Bottom)/1+10^X-LogIC50). Ki values were calculated using the Cheng-Prusoff equation: Ki=IC50/[1+([C]/KD)] where C is the concentration of radioligand and KD is the dissociation constant of the radioligand (Cheng and Prusoff, Biochem. Pharmacol. 22, 3099-3108, 1973). The observed on (kob) and off (koff) rate were calculated from association-dissociation curves using the one-phase-exponential association and decay equations in the Prism program, respectively. kon was calculated by subtracting koff from kob and dividing by the radioligand concentration. The two-tailed Student's t-test was used for statistical evaluation of the binding data: * p<0.05, ** p<0.01 and *** p<0.001. The Dunnett's t-test following a 2-way analysis of variance (with as factors compound concentration and experiment) were used to analyse the data from the IP experiments.

Another experiment addresses T3, rat mGlu6 receptor (Rattus norvegicus, UniProt P35349).
T3 construct: host or cells: CHO-dhfr- cells
Kind of experiment: [3H]Compound A binding to membranes from CHO-dhfr− cells expressing the rat mGlu6 receptor. The note with it: 20 nM [3H]Compound A, 40 μg membranes; Compound 135 as blanc. The method, then: as §1, §2

Another experiment deals with T4, rat mGlu2 receptor (Rattus norvegicus, UniProt P31421).
T4 construct: host or cells: CHO-dhfr- cells
T4 sequence (P31421 19-872): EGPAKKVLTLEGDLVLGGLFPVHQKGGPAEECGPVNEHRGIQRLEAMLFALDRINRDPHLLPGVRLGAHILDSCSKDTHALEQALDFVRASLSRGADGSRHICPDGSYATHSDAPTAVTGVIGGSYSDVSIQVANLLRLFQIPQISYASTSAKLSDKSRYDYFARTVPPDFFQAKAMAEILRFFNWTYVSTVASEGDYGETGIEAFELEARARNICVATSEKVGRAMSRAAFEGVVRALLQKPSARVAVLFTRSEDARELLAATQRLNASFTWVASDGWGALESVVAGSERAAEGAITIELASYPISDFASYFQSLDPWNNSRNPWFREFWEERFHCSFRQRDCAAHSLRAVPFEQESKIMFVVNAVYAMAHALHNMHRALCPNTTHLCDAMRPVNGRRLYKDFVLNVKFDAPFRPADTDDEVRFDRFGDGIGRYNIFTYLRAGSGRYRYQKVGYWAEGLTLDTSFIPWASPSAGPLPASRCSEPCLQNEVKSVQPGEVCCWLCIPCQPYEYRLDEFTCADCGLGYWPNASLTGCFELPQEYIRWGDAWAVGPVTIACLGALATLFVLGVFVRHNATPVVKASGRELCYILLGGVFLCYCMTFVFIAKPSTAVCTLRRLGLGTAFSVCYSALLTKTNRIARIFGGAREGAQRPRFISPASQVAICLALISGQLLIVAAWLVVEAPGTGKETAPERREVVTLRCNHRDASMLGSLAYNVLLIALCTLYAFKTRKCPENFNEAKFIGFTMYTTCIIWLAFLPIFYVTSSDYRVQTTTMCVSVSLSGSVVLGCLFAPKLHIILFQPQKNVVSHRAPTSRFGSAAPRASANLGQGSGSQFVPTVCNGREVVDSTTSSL
Kind of experiment: [3H]Compound A binding to membranes from CHO-dhfr− cells expressing the rat mGlu2 receptor. The note with it: 20 nM [3H]Compound A, 40 μg membranes. The method, then: as §1, §2

Setting [3] is: membranes from rat cerebellum, mean ± SD, 3 experiments.
The mark [4] stands for this setting: membranes from rat cortex, mean ± SD, 3 experiments.
Setting [5] is: membranes from rat hippocampus, mean ± SD, 3 experiments.
The mark [6] stands for this setting: membranes from rat striatum, mean ± SD, 3 experiments.

T3 sequence (P35349 24-871): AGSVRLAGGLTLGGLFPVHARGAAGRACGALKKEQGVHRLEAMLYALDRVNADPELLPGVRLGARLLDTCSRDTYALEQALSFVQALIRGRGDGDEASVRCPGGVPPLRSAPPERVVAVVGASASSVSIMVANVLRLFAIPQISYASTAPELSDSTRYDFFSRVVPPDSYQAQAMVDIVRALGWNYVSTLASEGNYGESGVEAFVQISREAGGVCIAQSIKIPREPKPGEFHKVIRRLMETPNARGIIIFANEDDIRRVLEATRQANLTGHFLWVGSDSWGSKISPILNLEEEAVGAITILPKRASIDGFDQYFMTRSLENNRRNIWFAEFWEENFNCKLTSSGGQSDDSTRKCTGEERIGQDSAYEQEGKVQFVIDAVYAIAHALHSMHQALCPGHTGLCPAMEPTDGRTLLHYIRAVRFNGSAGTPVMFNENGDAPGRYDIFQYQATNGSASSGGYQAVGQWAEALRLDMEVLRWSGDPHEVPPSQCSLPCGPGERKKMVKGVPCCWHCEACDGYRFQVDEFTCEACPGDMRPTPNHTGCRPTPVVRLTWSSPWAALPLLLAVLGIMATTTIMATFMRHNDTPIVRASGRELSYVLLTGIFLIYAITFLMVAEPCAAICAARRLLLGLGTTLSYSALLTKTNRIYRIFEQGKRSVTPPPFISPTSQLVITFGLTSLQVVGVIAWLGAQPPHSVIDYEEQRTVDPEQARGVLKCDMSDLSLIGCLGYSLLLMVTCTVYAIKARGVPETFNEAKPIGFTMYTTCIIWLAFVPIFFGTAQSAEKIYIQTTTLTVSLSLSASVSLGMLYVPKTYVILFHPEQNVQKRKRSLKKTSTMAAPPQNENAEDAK
T2 sequence (P31424 21-1203): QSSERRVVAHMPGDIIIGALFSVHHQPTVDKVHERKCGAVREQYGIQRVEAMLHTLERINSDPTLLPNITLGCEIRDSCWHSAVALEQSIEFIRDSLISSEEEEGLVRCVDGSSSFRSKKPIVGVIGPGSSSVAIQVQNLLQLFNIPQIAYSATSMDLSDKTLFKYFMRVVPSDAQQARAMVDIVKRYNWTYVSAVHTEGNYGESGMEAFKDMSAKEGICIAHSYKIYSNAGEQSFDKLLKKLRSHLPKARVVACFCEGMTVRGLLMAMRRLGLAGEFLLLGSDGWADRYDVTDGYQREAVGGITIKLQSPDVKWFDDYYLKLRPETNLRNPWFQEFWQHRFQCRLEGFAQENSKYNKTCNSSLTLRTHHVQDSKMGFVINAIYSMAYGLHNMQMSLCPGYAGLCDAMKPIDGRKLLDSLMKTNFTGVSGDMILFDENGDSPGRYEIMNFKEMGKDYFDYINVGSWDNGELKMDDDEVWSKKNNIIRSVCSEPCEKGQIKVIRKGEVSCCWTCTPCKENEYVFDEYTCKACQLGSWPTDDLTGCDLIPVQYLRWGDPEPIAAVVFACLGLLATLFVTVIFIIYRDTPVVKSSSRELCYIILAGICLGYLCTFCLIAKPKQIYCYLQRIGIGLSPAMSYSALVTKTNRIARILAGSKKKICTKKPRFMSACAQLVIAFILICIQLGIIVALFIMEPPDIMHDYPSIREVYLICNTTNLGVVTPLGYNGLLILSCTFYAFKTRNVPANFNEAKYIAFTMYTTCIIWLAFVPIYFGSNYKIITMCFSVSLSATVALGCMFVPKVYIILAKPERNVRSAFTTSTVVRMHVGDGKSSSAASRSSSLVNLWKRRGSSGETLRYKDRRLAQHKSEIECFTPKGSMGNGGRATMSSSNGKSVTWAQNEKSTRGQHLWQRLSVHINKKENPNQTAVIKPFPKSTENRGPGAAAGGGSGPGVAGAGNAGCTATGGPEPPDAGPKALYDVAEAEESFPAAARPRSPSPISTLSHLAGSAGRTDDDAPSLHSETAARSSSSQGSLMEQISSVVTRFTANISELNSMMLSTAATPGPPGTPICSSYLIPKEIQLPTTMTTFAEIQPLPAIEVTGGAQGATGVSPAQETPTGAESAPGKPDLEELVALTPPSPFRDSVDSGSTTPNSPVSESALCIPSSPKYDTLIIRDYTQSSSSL

As for `[3H]c1ccc(CC(=O)c2ccc3nc4c(cc3c2)CCCO4)cc1` [[^3H]Compound A], the “specific binding in autoradiography” value was “moderate signal” at mGlu1 receptor [1] (CA3 field and dentate gyrus of hippocampal formation, thalamus, olfactory tubercle, amygdala, substantia nigra reticulata); “lower labelling” on mGlu1 receptor [1] (cerebral cortex, caudate putamen, ventral pallidum, nucleus accumbens); “Very high specific binding” on mGlu1 receptor [1] (molecular layer of the cerebellum). In addition, the “SB (fmoles/mg protein), mGlu5” value at rat mGlu5 receptor is reported as 38 fmoles/mg protein. In addition, the Kd was roughly 1 nM on mGlu1 receptor [2] (all structures (cortex, hippocampus, striatum, cerebellum)); 0.99 ± 0.36 nM at mGlu1 receptor [2] (setting [3]); 1.04 ± 0.4 nM at mGlu1 receptor [2] (setting [4]); 0.72 ± 0.22 nM on mGlu1 receptor [2] (setting [5]); 0.84 ± 0.23 nM on mGlu1 receptor [2] (setting [6]). Also, the “non-specific binding compared to total binding” value at mGlu1 receptor [2] (cerebellum) is recorded as 10%; on mGlu1 receptor [2] (cortex), 25%; at mGlu1 receptor [2] (hippocampus) it was 30%; at mGlu1 receptor [2] (striatum), 25%. The “number of sites labelled as % of the number found in the cerebellum” value at mGlu1 receptor [2] (cortex) is on record as 11%; at mGlu1 receptor [2] (hippocampus), “about 16%”; at mGlu1 receptor [2] (striatum) it was “about 16%”. Further, the Bmax on mGlu1 receptor [2] (setting [3]) was 4302 ± 2042 fmoles/mg protein; on mGlu1 receptor [2] (setting [4]), 471 ± 68 fmoles/mg protein; on mGlu1 receptor [2] (setting [5]), 688 ± 125 fmoles/mg protein; on mGlu1 receptor [2] (setting [6]), 741 ± 48 fmoles/mg protein. In addition, the “SB (fmoles/mg protein), mGlu6” value at rat mGlu6 receptor was 0 fmoles/mg protein. For the same molecule, the “SB (fmoles/mg protein), mGlu2” value is given as 0 fmoles/mg protein at rat mGlu2 receptor (Compound 135 as blanc) and 34^a fmoles/mg protein on rat mGlu2 receptor (various blancs: 1 mM glutamate).

In general, Kd refers to the equilibrium constant for the complex coming apart. High values mean lower affinity, low ones higher affinity.
